Experiments:
[1] = Oral bioavailability in dog at 6 umol/kg; format: ADME, organism-based, Canis lupus familiaris; conditions: in vivo, at 6 µmol/kg
[2] = Metabolic stability in human liver microsomes; format: ADME; conditions: read-out: Stability
[3] = Oral bioavailability in rat at 20 umol/kg; format: ADME, organism-based; conditions: in vivo, at 20 µmol/kg
[4] = Total clearance in rat at 5 umol/kg, iv and 20 umol/kg, po; format: ADME, organism-based; conditions: in vivo
Hepatocyte = assay: Metabolic stability in human hepatocytes measured per 10^6 cells; format: ADME, cell-based
[5] = Drug excretion in rat urine; format: ADME; conditions: in vivo
[6] = Total clearance in dog at 3 umol/kg, iv and 6 umol/kg, po; format: ADME, organism-based, Canis lupus familiaris; conditions: in vivo
[7] = Renal clearance in rat at 5 umol/kg, iv and 20 umol/kg, po; format: ADME, organism-based, Kidney; conditions: in vivo
[8] = Renal clearance in dog at 3 umol/kg, iv and 6 umol/kg, po; format: ADME, organism-based, Canis lupus familiaris, Kidney; conditions: in vivo
[9] = Drug metabolism in human hepatocytes assessed as glucuronidation on isoxazolone ring; format: ADME, cell-based, Hepatocyte
[10] = Drug excretion in dog urine; format: ADME, Canis lupus familiaris; conditions: read-out: Drug excretion
[11] = Dissociation constant, pKa of the compound; format: physicochemical

Structure (SMILES) | bioavailability [1] | microsomal CLint [2] | bioavailability [3] | clearance [4] | Stability (Hepatocyte) | Drug excretion [5] | clearance [6] | CL renal [7] | CL renal [8] | Drug metabolism [9] | dose excreted [10] | pKa [11]
O=c1cc([C@H]2CCN[C@@H](CCc3ccccc3)C2)o[nH]1 | 59% | < 5 µL/min/mg | 19% | 24 mL/min/kg | < 1 µL/min | 25 %ID | 1.8 mL/min/kg | 6 mL/min/kg | 0.12 mL/min/kg | metabolite_detected | – | –
CC(C)(C)C[C@H]1C[C@@H](c2cc(=O)[nH]o2)CCN1 | 53% | < 5 µL/min/mg | 39% | 13 mL/min/kg | < 1 µL/min | 45 %ID | 1.1 mL/min/kg | 6 mL/min/kg | 0.8 mL/min/kg | metabolite_detected | 70% | –
O=c1cc([C@H]2CCN[C@H](Cc3ccccc3)C2)o[nH]1 | – | – | – | – | – | – | – | – | – | – | – | 4.9
O=c1cc([C@H]2CCN[C@@H](Cc3ccccc3)C2)o[nH]1 | 73% | < 5 µL/min/mg | 33% | 46 mL/min/kg | < 1 µL/min | 25 %ID | 2.9 mL/min/kg | 11 mL/min/kg | 0.2 mL/min/kg | metabolite_detected | 7% | –
O=c1cc([C@@H]2CCN[C@H](Cc3ccccc3)C2)o[nH]1 | – | – | – | – | – | – | – | – | – | – | – | 4.4

From ChEMBL document CHEMBL3286179, “Discovery of the Fibrinolysis Inhibitor AZD6564, Acting via Interference of a Protein-Protein Interaction” (ACS Med Chem Lett, 2014)
